Here are results for 35 compounds from ChEMBL document CHEMBL5523725, “Fragment-Based Anti-inflammatory Agent Design and Target Identification: Discovery of AF-45 as an IRAK4 Inhibitor to Treat Ulcerative Colitis and Acute Lung Injury” (J Med Chem, 2024).

Molecules are shown by their SMILES. Activity calls are given as the source filed them. The calls are words filed in the database; no cut-off is given here.

For data set [1], the system named is Mus musculus. In words: Anti-colitis activity in male C57BL/6 mouse model of DSS-induced ulcerative colitis assessed as colon length at 100 mg/kg, po administered for 11 days with subsequent administration of DSS for 8 days (reference value: 5.2 cm). The format is functional. Conditions: time 11 day.
Data set [2] deals with Mus musculus. Description: Antiinflammatory activity in male C57BL/6 mouse model of DSS-induced ulcerative colitis assessed as reduction in colonic structure destruction at 100 mg/kg, po administered for 11 days with subsequent administration of DSS for 8 days by H and E staining based analysis. Type of data set: functional, organism-based. Conditions: time 11.0 day.
In data set [3] the test system is Mus musculus. In words: Antiinflammatory activity in male C57BL/6 mouse model of DSS-induced ulcerative colitis assessed as reduction in spleen to body weight ratio at 100 mg/kg, po administered for 11 days with subsequent administration of DSS for 8 days. Type of data set: functional, organism-based. Conditions: time 11.0 day.
Data set [4] concerns Mus musculus. In words: Antiinflammatory activity in male C57BL/6 mouse model of DSS-induced ulcerative colitis assessed as reduction in macrophage infiltration in colon at 100 mg/kg, po administered for 11 days with subsequent administration of DSS for 8 days by F4/80 labeling based immunohistochemistry analysis. Type of data set: functional, organism-based. Conditions: time 11.0 day.

Data set [5] has as its system Mus musculus. In words: Antiinflammatory activity in male C57BL/6 mouse model of DSS-induced ulcerative colitis assessed as restoration of protein status at 100 mg/kg, po administered for 11 days with subsequent administration of DSS for 8 days by H and E staining based analysis. Type of data set: functional, organism-based. Conditions: time 11.0 day.
The subject of data set [6] is Mus musculus. In words: Antiinflammatory activity in male C57BL/6 mouse model of DSS-induced ulcerative colitis assessed as preservation of goblet cells at 100 mg/kg, po administered for 11 days with subsequent administration of DSS for 8 days by H and E staining based analysis. The format is functional, organism-based. Conditions: time 11.0 day.
The test system of data set [7] is Mus musculus. Description: Antiinflammatory activity in male C57BL/6 mouse model of DSS-induced ulcerative colitis assessed as reduction in macrophage infiltration in spleen at 100 mg/kg, po administered for 11 days with subsequent administration of DSS for 8 days by F4/80 labeling based immunohistochemistry analysis. The format is functional, organism-based. Conditions: time 11.0 day.

The test system of another data set is RAW264.7. In words: Antiinflammatory activity in LPS-induced mouse RAW264.7 cells assessed as inhibition of IL-6 release at 10 uM pretreated for 30 mins followed by LPS stimulation and measured after 24 hrs by ELISA relative to control. Type of data set: functional. Conditions: time 24.5 hrs.
A short description of data set [8]: Cytotoxicity against mouse RAW264.7 cells assessed as cell viability by MTT assay. Also on record: concentration or dose not given beside the values. Conditions: read-out: Activity. The format is toxicity, cell-based.
Data set [9] has as its target T1, Lymphocyte antigen 96 (Mus musculus) (UniProt Q9JHF9).
T1 sequence (whole entry): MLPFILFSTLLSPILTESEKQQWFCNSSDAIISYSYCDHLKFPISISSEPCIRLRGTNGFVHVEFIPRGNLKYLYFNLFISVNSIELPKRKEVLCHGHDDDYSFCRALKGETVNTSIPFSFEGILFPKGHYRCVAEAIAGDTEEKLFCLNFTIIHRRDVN
Description: Thermal stabilization of MD2 in mouse RAW264.7 cells assessed as reduction in decomposition at 10 uM at 45 to 51 degreeC measured after 4 hrs by CETSA. The format is cell-based.

Data set [10] concerns Mus musculus. Description: Antiinflammatory activity in LPS induced C57BL/6 mouse model of acute lung injury assessed as inhibition of TNFalpha release in serum at 20 mg/kg, ip preadministered for 30 mins followed by LPS administration and measured after 6 hrs by ELISA. Type of data set: functional, organism-based. Conditions: time 6.5 hrs. Background: In an ELISA, binding on a coated surface is turned into a signal by an enzyme label.

Data set [11] deals with Mus musculus. In words: Antiinflammatory activity in LPS induced C57BL/6 mouse model of acute lung injury assessed as reduction in macrophage infiltration in lung at 20 mg/kg, ip preadministered for 30 mins followed by LPS administration and measured after 6 hrs by F4/80 labeling based immunohistochemical analysis. Conditions: time 6.5 hrs. Type of data set: functional, organism-based.

The subject of data set [12] is Mus musculus. In words: Antiinflammatory activity in LPS induced C57BL/6 mouse model of acute lung injury assessed as reduction in over activation of spleen at 20 mg/kg, ip preadministered for 30 mins followed by LPS administration and measured after 6 hrs by F4/80 labeling based immunohistochemical analysis. The format is functional, organism-based. Conditions: time 6.5 hrs.

Data set [13] deals with Mus musculus. Description: Antiinflammatory activity in LPS induced C57BL/6 mouse model of acute lung injury assessed as reduction in spleen over activation at 20 mg/kg, ip preadministered for 30 mins followed by LPS administration and measured after 6 hrs by H and E staining based analysis. The format is functional, organism-based. Conditions: time 6.5 hrs.
For data set [14], the system named is Mus musculus. In words: Antiinflammatory activity in LPS induced C57BL/6 mouse model of acute lung injury assessed as inhibition of IL-6 release in BALF at 20 mg/kg, ip preadministered for 30 mins followed by LPS administration and measured after 6 hrs by ELISA. Type of data set: functional, organism-based. Conditions: time 6.5 hrs.
Data set [15] relates to Mus musculus. In words: Antiinflammatory activity in LPS induced C57BL/6 mouse model of acute lung injury assessed as reduction in number of macrophages in spleen at 20 mg/kg, ip preadministered for 30 mins followed by LPS administration and measured after 6 hrs by F4/80 labeling based immunohistochemical analysis. Conditions: time 6.5 hrs. The format is functional, organism-based.

Data set [16] concerns Mus musculus. In words: Antiinflammatory activity in LPS induced C57BL/6 mouse model of acute lung injury assessed as reduction in white pulp fusion at 20 mg/kg, ip preadministered for 30 mins followed by LPS administration and measured after 6 hrs by H and E staining based analysis. Type of data set: functional, organism-based. Conditions: time 6.5 hrs.
The test system of data set [17] is Mus musculus. In words: Antiinflammatory activity in LPS induced C57BL/6 mouse model of acute lung injury assessed as inhibition of IL-6 release in serum at 20 mg/kg, ip preadministered for 30 mins followed by LPS administration and measured after 6 hrs by ELISA. The format is functional, organism-based. Conditions: time 6.5 hrs.
Data set [18] deals with Mus musculus. Description: Antiinflammatory activity in LPS induced C57BL/6 mouse model of acute lung injury assessed as inhibition of TNFalpha release in BALF at 20 mg/kg, ip preadministered for 30 mins followed by LPS administration and measured after 6 hrs by ELISA. Type of data set: functional, organism-based. Conditions: time 6.5 hrs.

Take `Nc1ccc(O)c(C(=O)O)c1` [MESALAMINE]: in the data set with Mus musculus [1], the Activity worked out at 6 cm. Moreover, the outcome in the data set on Mus musculus [2], with Mus musculus [3], in the data set on Mus musculus [4], in the data set on Mus musculus [5], with Mus musculus [6] and with Mus musculus [7] was Active.
By inhibition is commonly meant the drop in the measured response relative to a control, in per cent. Turning to `COc1cc2ncnc(Oc3cccc(NC(=O)N[C@H]4CC[C@@H](NC(=O)c5ccc(C)cc5)CC4)c3)c2cc1OC`, the inhibition at 10 µM in the data set on RAW264.7 is 72.7%. Further, the viability in [8] was 124%.
On the same counts, the results for `CCN1CCN(CCOc2ncnc3cc(OC)c(OC)cc23)CC1` are 40% and 90.1%.
On the same counts, the results for `Cn1c(CNC(=O)O[C@H]2CC[C@@H](N)CC2)nc2ccccc21` are 52.8% and 90.1%.
On the same counts, the results for `N[C@H]1CC[C@@H](Oc2ncnc3ccccc23)CC1` are 76.8% and 103%.
Regarding `COc1cc2ncnc(N[C@H]3CC[C@@H](NC(=O)c4ccc(F)cc4)CC3)c2cc1OC`, the inhibition at 10 µM in the data set with RAW264.7 was determined as 39.9%. Further, the viability in [8] worked out at 102%.
The corresponding values for `COc1cc2ncnc(Oc3cccc(NC(=O)N[C@H]4CC[C@@H](NC(=O)c5ccc(F)cc5)CC4)c3)c2cc1OC` are 52.2% and 123%.
On the same counts, the results for `COc1cc2nc(Cl)nc(O[C@H]3CC[C@@H](N)CC3)c2cc1OC` are 34.3% and 105%.
On the same counts, the results for `COc1cc2ncnc(N[C@H]3CC[C@@H](NCCO)CC3)c2cc1OC` are 10.6% and 99.7%.
As for `COc1cc2ncnc(N[C@H]3CC[C@@H](NC(=O)c4ccc(C)cc4)CC3)c2cc1OC`, the inhibition at 10 µM with RAW264.7 stood at 42.3%. Also, the viability in [8] was determined as 97.8%.
For the compound `N[C@H]1CC[C@@H](OC(=O)c2nn(-c3ccccc3)ccc2=O)CC1`, the inhibition entry in the data set on RAW264.7 is “inactive”. Further, the viability in data set [8] worked out at 107%.
For the compound `COc1cc2ncnc(Oc3cccc(NC(=O)N[C@H]4CC[C@@H](NC(=O)CCC5CCCC5)CC4)c3)c2cc1OC`, the inhibition at 10 µM with RAW264.7 came out at 52.9%. The viability in [8] stood at 117%.
In the case of `COc1cc2ncnc(N[C@H]3CC[C@H](N)CC3)c2cc1OC`, the inhibition at 10 µM with RAW264.7 was found to be 64.6%. In data set [8], the viability is 108%.
The corresponding values for `COc1cc2ncnc(NCCc3cccs3)c2cc1OC` are 16.1% and 88.1%.
As to `CN[C@H]1CC[C@@H](Nc2ncnc3cc(OC)c(OC)cc23)CC1`, the inhibition entry in the data set with RAW264.7 was “inactive”. In data set [8], the viability is 98.2%.
In the case of `COc1cc2ncnc(Oc3cccc(NC(=O)N[C@H]4CC[C@@H](NC(=O)OC(C)(C)C)CC4)c3)c2cc1OC`, the inhibition at 10 µM with RAW264.7 turned out to be 2.1%. Further, the viability in [8] stood at 92.1%.
For `COc1ccc(C(=O)/C=C/c2cccc(OC)c2OC)cc1`, in [9], the result was Active.
In the case of `COc1cc2ncnc(Oc3cccc(NC(=O)O[C@H]4CC[C@@H](N)CC4)c3)c2cc1OC`, in the data set on RAW264.7, the inhibition at 10 µM is 73.4%. Also, in data set [8], the viability was 96.5%.
Turning to `COc1cc2ncnc(N[C@H]3CC[C@@H](N)CC3)c2cc1OC`, the inhibition at 10 µM in the data set with RAW264.7 is 83.7%. In data set [8], the viability was 91.1%.
On the same counts, the results for `COc1cc2ncnc(Oc3cccc(NC(=O)N[C@H]4CC[C@@H](NC(=O)c5cccc(F)c5)CC4)c3)c2cc1OC` are 45.4% and 121%.
The corresponding values for `COc1cc2ncnc(O[C@H]3CC[C@@H](N)CC3)c2cc1OC` are 75.8% and 88.9%.
On the same counts, the results for `COCCOc1cc2ncnc(O[C@H]3CC[C@@H](N)CC3)c2cc1OCCOC` are 52.7% and 98.6%.
As to `COc1cc2ncnc(O[C@H]3CC[C@H](N)CC3)c2cc1OC`, the inhibition at 10 µM in the data set with RAW264.7 worked out at 57.4%. Also, the viability in [8] is 93.7%.
The corresponding values for `COc1cc2ncnc(N[C@H]3CC[C@@H](NCCCN(C)C)CC3)c2cc1OC` are 11.1% and 96.5%.
The corresponding values for `COc1cc2ncnc(Oc3cccc(NC(=O)N[C@H]4CC[C@@H](N)CC4)c3)c2cc1OC` are 77.3% and 91.5%.
For `C[C@@H]1C[C@H]2[C@@H]3CCC4=CC(=O)C=C[C@]4(C)[C@@]3(F)[C@@H](O)C[C@]2(C)[C@@]1(O)C(=O)CO`, the result in the data set on Mus musculus [10], in the data set with Mus musculus [11], in the data set on Mus musculus [13], in the data set with Mus musculus [14], with Mus musculus [16] and in the data set with Mus musculus [17] was Active. Also, in the data set with Mus musculus [18], the outcome was Active. Besides, the result with Mus musculus [12] and with Mus musculus [15] was inactive.
Turning to `N[C@H]1C[C@@H](OC(=O)c2nn(-c3ccccc3)ccc2=O)C1`, in the data set with RAW264.7, the inhibition at 10 µM was found to be 33.2%. Further, the viability in [8] was 89%.
On the same counts, the results for `COc1cc2c(N[C@H]3CC[C@@H](N)CC3)ncnc2cc1OCc1ccccc1` are 88.6% and 86.7%.
On the same counts, the results for `COc1cc2ncnc(N[C@H]3CC[C@@H](NS(=O)(=O)c4ccc(C)cc4)CC3)c2cc1OC` are 45.4% and 104%.
The corresponding values for `Cn1c(CNC(=O)O[C@H]2C[C@@H](N)C2)nc2ccccc21` are 44.7% and 97.1%.
As to `COc1cc2ncnc(Oc3cccc(NC(=O)O[C@H]4C[C@@H](N)C4)c3)c2cc1OC`, the inhibition at 10 µM with RAW264.7 was 46.9%. Also, the viability in data set [8] turned out to be 106%.
In the case of `COc1cc2ncnc(Oc3cccc(NC(=O)N[C@H]4CC[C@@H](NC(=O)c5ccc(F)cc5Cl)CC4)c3)c2cc1OC`, in the data set on RAW264.7, the inhibition at 10 µM is 9.4%. Also, the viability in [8] worked out at 130%.
On the same counts, the results for `COc1cc2ncnc(Oc3cccc(NC(=O)N[C@H]4CC[C@@H](NS(=O)(=O)c5ccccc5)CC4)c3)c2cc1OC` are 16% and 112%.
On the same counts, the results for `N[C@H]1CC[C@@H](Oc2ncnc3cc(Cl)ccc23)CC1` are 53.1% and 98.8%.
For `COc1cc2ncnc(Oc3cccc(NC(=O)N[C@H]4CC[C@@H](NC(=O)c5ccccn5)CC4)c3)c2cc1OC`, the inhibition at 10 µM with RAW264.7 is 45.4%. Also, the viability in data set [8] is 116%.
